# From PubChem BioAssay (NCI)
#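 All cell lines were grown in 96-well plates and treated with compound for 48 hours. Abbreviation: GI50, concentration required for 50% inhibition of growth. TGI marks complete inhibition of growth.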
# Tests used:
# Assay in all cases: NCI tumour cell line growth inhibition, 48 h
# MCF7 breast = test system: MCF7 breast
# BT-549 breast = test system: BT-549 breast
# NCI/ADR-RES ovarian = test system: NCI/ADR-RES ovarian
# OVCAR-5 ovarian = test system: OVCAR-5 ovarian
# SR leukemia = test system: SR leukemia
# SNB-19 CNS = test system: SNB-19 CNS
# TK-10 renal = test system: TK-10 renal
# SK-OV-3 ovarian = test system: SK-OV-3 ovarian
# U251 CNS = test system: U251 CNS
# UACC-257 melanoma = test system: UACC-257 melanoma
# OVCAR-4 ovarian = test system: OVCAR-4 ovarian
# RXF 393 renal = test system: RXF 393 renal
# EKVX NSCLC = test system: EKVX NSCLC
# IGROV1 ovarian = test system: IGROV1 ovarian
# SK-MEL-5 melanoma = test system: SK-MEL-5 melanoma
# PC-3 prostate = test system: PC-3 prostate
# HOP-92 NSCLC = test system: HOP-92 NSCLC
# SF-539 CNS = test system: SF-539 CNS
# HCT-15 colon = test system: HCT-15 colon
# HS 578T breast = test system: HS 578T breast
# SN12C renal = test system: SN12C renal
# COLO 205 colon = test system: COLO 205 colon
# NCI-H226 lung = test system: NCI-H226 lung
# HOP-62 NSCLC = test system: HOP-62 NSCLC
# NCI-H460 lung = test system: NCI-H460 lung
# HT29 colon = test system: HT29 colon
# HL-60(TB) leukemia = test system: HL-60(TB) leukemia
# HCT-116 colon = test system: HCT-116 colon
# MDA-MB-231 breast = test system: MDA-MB-231 breast
# MOLT-4 leukemia = test system: MOLT-4 leukemia
# OVCAR-8 ovarian = test system: OVCAR-8 ovarian
# ACHN renal = test system: ACHN renal
# K-562 leukemia = test system: K-562 leukemia
# A498 renal = test system: A498 renal
# CCRF-CEM leukemia = test system: CCRF-CEM leukemia
# SW-620 colon = test system: SW-620 colon
# 786-0 renal = test system: 786-0 renal
# KM12 colon = test system: KM12 colon
# LOX IMVI melanoma = test system: LOX IMVI melanoma
# M14 melanoma = test system: M14 melanoma
# HCC-2998 colon = test system: HCC-2998 colon
# CAKI-1 renal = test system: CAKI-1 renal
# SK-MEL-2 melanoma = test system: SK-MEL-2 melanoma
# SF-295 CNS = test system: SF-295 CNS
# SNB-75 CNS = test system: SNB-75 CNS
# MDA-MB-435 = test system: MDA-MB-435
# SK-MEL-28 melanoma = test system: SK-MEL-28 melanoma
# T-47D breast = test system: T-47D breast
# OVCAR-3 ovarian = test system: OVCAR-3 ovarian
# SF-268 CNS = test system: SF-268 CNS
# UACC-62 melanoma = test system: UACC-62 melanoma
# A549 NSCLC = test system: A549 NSCLC
# RPMI-8226 leukemia = test system: RPMI-8226 leukemia
# UO-31 renal = test system: UO-31 renal
# NCI-H522 lung = test system: NCI-H522 lung
# DU-145 prostate = test system: DU-145 prostate
smiles,measurement,setting,value
COC(=O)c1ccc(C2SC(C)C(=O)N2NC(=O)C(O)c2ccccc2)cc1 (configuration not stated),GI50,MCF7 breast,> 100 µM
same,TGI,MCF7 breast,> 100 µM
same,GI50,BT-549 breast,> 100 µM
same,TGI,BT-549 breast,> 100 µM
same,GI50,NCI/ADR-RES ovarian,> 100 µM
same,TGI,NCI/ADR-RES ovarian,> 100 µM
same,GI50,OVCAR-5 ovarian,> 100 µM
same,TGI,OVCAR-5 ovarian,> 100 µM
same,GI50,SR leukemia,> 100 µM
same,TGI,SR leukemia,> 100 µM
same,GI50,SNB-19 CNS,> 100 µM
same,TGI,SNB-19 CNS,> 100 µM
same,GI50,TK-10 renal,> 100 µM
same,TGI,TK-10 renal,> 100 µM
same,GI50,SK-OV-3 ovarian,> 100 µM
same,TGI,SK-OV-3 ovarian,> 100 µM
same,GI50,U251 CNS,> 100 µM
same,TGI,U251 CNS,> 100 µM
same,GI50,UACC-257 melanoma,> 100 µM
same,TGI,UACC-257 melanoma,> 100 µM
same,GI50,OVCAR-4 ovarian,> 100 µM
same,TGI,OVCAR-4 ovarian,> 100 µM
same,GI50,RXF 393 renal,> 100 µM
same,TGI,RXF 393 renal,> 100 µM
same,GI50,EKVX NSCLC,> 100 µM
same,TGI,EKVX NSCLC,> 100 µM
same,GI50,IGROV1 ovarian,> 100 µM
same,TGI,IGROV1 ovarian,> 100 µM
same,GI50,SK-MEL-5 melanoma,> 100 µM
same,TGI,SK-MEL-5 melanoma,> 100 µM
same,GI50,PC-3 prostate,> 100 µM
same,TGI,PC-3 prostate,> 100 µM
same,GI50,HOP-92 NSCLC,> 100 µM
same,TGI,HOP-92 NSCLC,> 100 µM
same,GI50,SF-539 CNS,> 100 µM
same,TGI,SF-539 CNS,> 100 µM
same,GI50,HCT-15 colon,> 100 µM
same,TGI,HCT-15 colon,> 100 µM
same,GI50,HS 578T breast,> 100 µM
same,TGI,HS 578T breast,> 100 µM
same,GI50,SN12C renal,> 100 µM
same,TGI,SN12C renal,> 100 µM
same,GI50,COLO 205 colon,> 100 µM
same,TGI,COLO 205 colon,> 100 µM
same,GI50,NCI-H226 lung,> 100 µM
same,TGI,NCI-H226 lung,> 100 µM
same,GI50,HOP-62 NSCLC,> 100 µM
same,TGI,HOP-62 NSCLC,> 100 µM
same,GI50,NCI-H460 lung,> 100 µM
same,TGI,NCI-H460 lung,> 100 µM
same,GI50,HT29 colon,> 100 µM
same,TGI,HT29 colon,> 100 µM
same,GI50,HL-60(TB) leukemia,> 100 µM
same,TGI,HL-60(TB) leukemia,> 100 µM
same,GI50,HCT-116 colon,> 100 µM
same,TGI,HCT-116 colon,> 100 µM
same,GI50,MDA-MB-231 breast,> 100 µM
same,TGI,MDA-MB-231 breast,> 100 µM
same,GI50,MOLT-4 leukemia,> 100 µM
same,TGI,MOLT-4 leukemia,> 100 µM
same,GI50,OVCAR-8 ovarian,> 100 µM
same,TGI,OVCAR-8 ovarian,> 100 µM
same,GI50,ACHN renal,> 100 µM
same,TGI,ACHN renal,> 100 µM
same,GI50,K-562 leukemia,> 100 µM
same,TGI,K-562 leukemia,> 100 µM
same,GI50,A498 renal,> 100 µM
same,TGI,A498 renal,> 100 µM
same,GI50,CCRF-CEM leukemia,> 100 µM
same,TGI,CCRF-CEM leukemia,> 100 µM
same,GI50,SW-620 colon,> 100 µM
same,TGI,SW-620 colon,> 100 µM
same,GI50,786-0 renal,> 100 µM
same,TGI,786-0 renal,> 100 µM
same,GI50,KM12 colon,> 100 µM
same,TGI,KM12 colon,> 100 µM
same,GI50,LOX IMVI melanoma,> 100 µM
same,TGI,LOX IMVI melanoma,> 100 µM
same,GI50,M14 melanoma,> 100 µM
same,TGI,M14 melanoma,> 100 µM
same,GI50,HCC-2998 colon,> 100 µM
same,TGI,HCC-2998 colon,> 100 µM
same,GI50,CAKI-1 renal,> 100 µM
same,TGI,CAKI-1 renal,> 100 µM
same,GI50,SK-MEL-2 melanoma,> 100 µM
same,TGI,SK-MEL-2 melanoma,> 100 µM
same,GI50,SF-295 CNS,> 100 µM
same,TGI,SF-295 CNS,> 100 µM
same,GI50,SNB-75 CNS,> 100 µM
same,TGI,SNB-75 CNS,> 100 µM
same,GI50,MDA-MB-435,> 100 µM
same,TGI,MDA-MB-435,> 100 µM
same,GI50,SK-MEL-28 melanoma,> 100 µM
same,TGI,SK-MEL-28 melanoma,> 100 µM
same,GI50,T-47D breast,> 100 µM
same,TGI,T-47D breast,> 100 µM
same,GI50,OVCAR-3 ovarian,> 100 µM
same,TGI,OVCAR-3 ovarian,> 100 µM
same,GI50,SF-268 CNS,> 100 µM
same,TGI,SF-268 CNS,> 100 µM
same,GI50,UACC-62 melanoma,> 100 µM
same,TGI,UACC-62 melanoma,> 100 µM
same,GI50,A549 NSCLC,> 100 µM
same,TGI,A549 NSCLC,> 100 µM
same,GI50,RPMI-8226 leukemia,> 100 µM
same,TGI,RPMI-8226 leukemia,> 100 µM
same,GI50,UO-31 renal,> 100 µM
same,TGI,UO-31 renal,> 100 µM
same,GI50,NCI-H522 lung,> 100 µM
same,TGI,NCI-H522 lung,> 100 µM
same,GI50,DU-145 prostate,> 100 µM
same,TGI,DU-145 prostate,> 100 µM
